Data on 13 molecules can be found in ChEMBL document CHEMBL1143194, “The 1,4-benzodiazepine-2,5-dione small molecule template results in melanocortin receptor agonists with nanomolar potencies” (J Med Chem, 2008).

The EC50 is the concentration giving half of the maximal effect.

Assay [1] has as its target Melanocortin receptor 4 (Mus musculus) (UniProt P56450). Nature of the assay: Agonist activity at mouse MC4R expressed in HEK293 cells assessed as forskolin-stimulated response at 100 uM by beta-galactosidase reporter gene assay relative to forskolin. The format is functional, cell-based.
Assay [2] addresses Melanocyte-stimulating hormone receptor (Mus musculus) (UniProt Q01727). Nature of the assay: Agonist activity at mouse MC1R expressed in HEK293 cells assessed as forskolin-stimulated response at 100 uM by beta-galactosidase reporter gene assay relative to forskolin. The format is functional, cell-based. (In general: Reporter assays use an easily measured gene product as a stand-in for the process of interest.)

The target in assay [3] is Melanocortin receptor 4 (Mus musculus, UniProt P56450). Nature of the assay: Agonist activity at mouse MC4R expressed in HEK293 cells assessed as forskolin-stimulated response by beta-galactosidase reporter gene assay. It counts as functional, cell-based.
Chain of Melanocortin receptor 4 (P56450 whole entry): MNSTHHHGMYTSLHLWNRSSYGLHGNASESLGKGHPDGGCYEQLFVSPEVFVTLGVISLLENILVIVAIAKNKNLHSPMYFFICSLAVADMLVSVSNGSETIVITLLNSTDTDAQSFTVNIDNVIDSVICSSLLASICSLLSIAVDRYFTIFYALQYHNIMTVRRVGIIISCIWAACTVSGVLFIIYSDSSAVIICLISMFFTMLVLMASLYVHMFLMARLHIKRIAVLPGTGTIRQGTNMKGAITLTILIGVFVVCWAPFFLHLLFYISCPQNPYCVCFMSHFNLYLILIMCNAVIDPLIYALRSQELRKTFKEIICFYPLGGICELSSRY
Assay [4] addresses Melanocortin receptor 3 (Mus musculus, UniProt P33033). The assay is described as follows: Agonist activity at mouse MC3R expressed in HEK293 cells assessed as forskolin-stimulated response by beta-galactosidase reporter gene assay. The format is functional, cell-based.
The target in assay [5] is Melanocortin receptor 5 (Mus musculus, UniProt P41149). The assay is described as follows: Agonist activity at mouse MC5R expressed in HEK293 cells assessed as forskolin-stimulated response by beta-galactosidase reporter gene assay. It counts as functional, cell-based.
Chain of Melanocortin receptor 5 (P41149 whole entry): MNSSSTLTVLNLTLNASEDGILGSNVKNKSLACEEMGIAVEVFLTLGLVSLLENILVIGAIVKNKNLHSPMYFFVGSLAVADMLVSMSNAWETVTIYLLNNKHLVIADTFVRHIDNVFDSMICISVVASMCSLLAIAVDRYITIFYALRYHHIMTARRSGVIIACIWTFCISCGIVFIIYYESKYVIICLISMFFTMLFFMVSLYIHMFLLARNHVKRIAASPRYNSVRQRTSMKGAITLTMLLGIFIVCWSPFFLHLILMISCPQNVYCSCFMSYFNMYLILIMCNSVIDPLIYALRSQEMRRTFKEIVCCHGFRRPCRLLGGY
Assay [6] has as its target Melanocyte-stimulating hormone receptor (Mus musculus, UniProt Q01727). The assay is described as follows: Agonist activity at mouse MC1R expressed in HEK293 cells assessed as forskolin-stimulated response by beta-galactosidase reporter gene assay. The format is functional, cell-based.
Assay [7] has as its target Melanocortin receptor 3 (Mus musculus) (UniProt P33033). Nature of the assay: Agonist activity at mouse MC3R expressed in HEK293 cells assessed as forskolin-stimulated response at 100 uM by beta-galactosidase reporter gene assay relative to forskolin. It counts as functional, cell-based.
The species named for assay [8] is Mus musculus. The assay is described as follows: Selectivity for mouse MC1R over mouse MC4R.
The species named for assay [9] is Mus musculus. Nature of the assay: Selectivity for mouse MC1R over mouse MC3R.
Assay [10] concerns the target Melanocortin receptor 5 (Mus musculus) (UniProt P41149). The assay is described as follows: Agonist activity at mouse MC5R expressed in HEK293 cells assessed as forskolin-stimulated response at 100 uM by beta-galactosidase reporter gene assay relative to forskolin. It counts as functional, cell-based.
Assay [11] shares this target. Nature of the assay: Agonist activity at mouse MC5R expressed in HEK293 cells assessed as forskolin-stimulated response at 10 uM by beta-galactosidase reporter gene assay relative to forskolin. It counts as functional, cell-based.

Chain of Melanocyte-stimulating hormone receptor (Q01727 whole entry): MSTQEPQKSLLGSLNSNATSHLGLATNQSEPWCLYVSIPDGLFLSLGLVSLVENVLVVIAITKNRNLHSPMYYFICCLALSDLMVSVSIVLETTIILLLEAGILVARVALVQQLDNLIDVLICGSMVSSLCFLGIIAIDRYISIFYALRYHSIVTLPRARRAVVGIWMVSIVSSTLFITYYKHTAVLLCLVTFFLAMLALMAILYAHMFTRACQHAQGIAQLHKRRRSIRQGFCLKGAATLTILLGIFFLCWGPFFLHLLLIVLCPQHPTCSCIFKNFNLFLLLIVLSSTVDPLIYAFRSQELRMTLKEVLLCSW
Chain of Melanocortin receptor 3 (P33033 whole entry): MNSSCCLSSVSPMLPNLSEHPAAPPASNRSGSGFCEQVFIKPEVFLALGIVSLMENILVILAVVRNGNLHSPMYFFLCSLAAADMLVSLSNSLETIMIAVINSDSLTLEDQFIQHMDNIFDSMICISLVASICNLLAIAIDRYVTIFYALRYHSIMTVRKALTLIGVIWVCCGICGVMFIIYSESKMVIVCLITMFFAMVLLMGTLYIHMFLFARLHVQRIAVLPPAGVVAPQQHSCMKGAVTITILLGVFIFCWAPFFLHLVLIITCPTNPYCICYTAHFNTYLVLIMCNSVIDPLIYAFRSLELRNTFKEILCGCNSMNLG
Chain of Melanocortin receptor 4 (Mus musculus) (P56450 whole entry): as the sequence (P56450 whole entry) above
Chain of Melanocyte-stimulating hormone receptor (Mus musculus) (Q01727 whole entry, looked up): as the sequence (Q01727 whole entry) above
Chain of Melanocortin receptor 3 (Mus musculus) (P33033 whole entry): as the sequence (P33033 whole entry) above
Chain of Melanocortin receptor 5 (Mus musculus) (P41149 whole entry): as the sequence (P41149 whole entry) above

Turning to `N=C(N)NCCCC1NC(=O)c2ccc(Cl)cc2N(Cc2ccccc2)C1=O` (stereo not given), the Activity in [1] was determined as 60%.
With `O=C1NC(Cc2c[nH]c3ccccc23)C(=O)N(Cc2ccccc2)c2ccccc21` (stereo not given), the Activity in assay [2] was 70%. Besides, the EC50 in assay [3], in [4] and in assay [5] was > 100 µM in each case.
On to `NC(N)=NCCCC1NC(=O)c2ccccc2N(Cc2ccccc2)C1=O` (stereo not given), for which the EC50 was > 100 µM in assay [3], > 100 µM in [4], > 100 µM in assay [5] and 16.4 µM in assay [6].
On to `Cc1cccc2c1N(Cc1ccccc1)C(=O)C(Cc1cn(Cc3ccccc3)c3ccccc13)NC2=O` (stereo not given), for which the EC50 was > 100 µM in assay [3], > 100 µM in assay [4], > 100 µM in [5] and 21.6 µM in assay [6].
For `O=C1NC(Cc2c[nH]c3ccccc23)C(=O)N(Cc2ccc3ccccc3c2)c2cc(Cl)ccc21` (stereo not given), the EC50 in [3], in assay [4], in [5] and in assay [6] was > 100 µM each time.
For the molecule `CCCN1C(=O)C(Cc2ccccc2)NC(=O)c2ccccc21` (stereo not given), the concentration for a half-maximal effect (EC50) in [3] came out at 35 µM; in assay [5] it was 3.27 µM; in assay [6] it was 6.9 µM. Further, the Activity in assay [7] came out at 80%.
As for `O=C1NC(Cc2ccccc2)C(=O)N(Cc2ccccc2-c2ccccc2)c2ccccc21` (stereo not given), the Ratio EC50 stood at 9 in [8] and 18 in assay [9]. Besides, the EC50 in [3] is 1.97 µM; in [4], 4.16 µM; in [6] it was 0.23 µM. Also, the Activity in assay [10] came to 60%.
In the case of `NCCCCC1NC(=O)c2ccc(Cl)cc2N(Cc2ccc3ccccc3c2)C1=O` (stereo not given), the figures for the Activity in assay [1], in [7] and in assay [11] were 30%, 30% and 65%, respectively. Further, the EC50 in assay [6] was 3.4 µM.
Consider `O=C1NC(Cc2ccccc2)C(=O)N(Cc2ccccc2)c2ccccc21` (stereo not given), for which the EC50 was > 100 µM in assay [3], > 100 µM in assay [4], > 100 µM in assay [5] and 32.9 µM in assay [6].
Consider `CCCCN1C(=O)C(Cc2ccccc2)NC(=O)c2ccccc21` (stereo not given), for which the Activity in assay [2] came to 70%. For the same molecule, the half-maximal effective concentration (EC50) in assay [3], in [4] and in [5] was > 100 µM each time.
In the case of `O=C1NC(Cc2ccccc2)C(=O)N(Cc2ccc3ccccc3c2)c2cc(Cl)ccc21` (stereo not given), the results for the EC50 in assay [4], in assay [5] and in assay [6] were 23.3 µM, 4.35 µM and 4.7 µM, respectively. For the same molecule, the Activity in assay [1] was 70%.
In the case of `NCCCCC1NC(=O)c2ccc(Cl)cc2N(Cc2ccccc2)C1=O` (stereo not given), the EC50 was determined as 0.24 µM in assay [3], 0.32 µM in [4], 0.087 µM in assay [5] and 0.048 µM in assay [6].
In the case of `NC(N)=NCCCC1NC(=O)c2ccc(Cl)cc2N(Cc2ccccc2)C1=O` (stereo not given), the EC50 in [4] turned out to be 30.6 µM; in assay [5], 17 µM; in [6], 1.8 µM.
